# Laboratory results: PubChem BioAssay AID310 (DTP/NCI, 2004)
# Where “and” joins values, the source holds several entries; their conditions need not be identical. Identical values can stand only once. Records with an inconclusive call do not appear.
# Tested on: C3AKF1 mice, osteogenic sarcoma HE10734 s.c., tumor weight T/C
# Assay: NCI In Vivo Anticancer Drug Screen. Data for tumor model Osteogenic Sarcoma HE 10734 (subcutaneous) in C3AKF1 (CHKRF1) mice
# Settings: endpoint: mean tumor weight, schedule: Q01DX010 (ip), higher = larger tumour
# Protocol: The antitumor activity of compounds was measured in mice bearing transplantable tumors. Survival or tumor size were measured and the results are expressed as the measurement made in the treated group (T) divided by the measurement made in the vehicle treated control group (C). The tumor model used in this assay is Osteogenic Sarcoma HE 10734 (subcutaneous) in C3AKF1 (CHKRF1) mice
# [1] = dose: 12.0 mg/kg/injection, vehicle: saline
# [2] = dose: 25.0 mg/kg/injection, vehicle: saline
# [3] = dose: 50.0 mg/kg/injection, vehicle: saline
# [4] = dose: 100.0 mg/kg/injection, vehicle: saline
# [5] = dose: 450.0 mg/kg/injection, vehicle: saline
# [6] = dose: 35.0 mg/kg/injection, vehicle: saline
# [7] = dose: 45.0 mg/kg/injection, vehicle: carboxymethylcellulose (CMC)
# [8] = dose: 62.0 mg/kg/injection, vehicle: saline
# [9] = dose: 125.0 mg/kg/injection, vehicle: saline
# [10] = dose: 250.0 mg/kg/injection, vehicle: saline
# [11] = dose: 500.0 mg/kg/injection, vehicle: saline
# [12] = dose: 300.0 mg/kg/injection, vehicle: saline
smiles,measurement,setting,value
CCn1cnc2c(SC)nc(N)nc21,T/C,[1],76 % of control
same,T/C,[2],93 % of control
same,T/C,[3],95 % of control
same,T/C,[4],108 % of control
same,T/C,"dose: 340.0 mg/kg/injection, vehicle: saline",57 % of control
O=P1(N(CCCl)CCCl)NCCCO1 (configuration not stated),T/C,"dose: 3.6 mg/kg/injection, vehicle: saline",172 % of control
same,T/C,"dose: 5.5 mg/kg/injection, vehicle: saline",151 % of control
same,T/C,"dose: 8.3 mg/kg/injection, vehicle: saline",93 % of control
same,T/C,[2],22 % of control
same,T/C,[3],5 % of control
same,T/C,[4],2 % of control
Clc1ncnc2c1ncn2C1CCCO1 (configuration not stated),T/C,"dose: 37.0 mg/kg/injection, vehicle: saline",77 % of control and 80 % of control
same,T/C,[5],69 % of control
NC1(C(=O)O)CCCC1,T/C,"dose: 15.0 mg/kg/injection, vehicle: saline",109 % of control
same,T/C,"dose: 23.0 mg/kg/injection, vehicle: saline",46 % of control
same,T/C,[6],77 % of control
same,T/C,"dose: 55.0 mg/kg/injection, vehicle: carboxymethylcellulose (CMC)",30 % of control and 42 % of control
same,T/C,"dose: 55.0 mg/kg/injection, vehicle: saline",46 % of control
same,T/C,"dose: 85.0 mg/kg/injection, vehicle: carboxymethylcellulose (CMC)",27 % of control and 45 % of control
O=c1c[n+](-c2ccccc2)[nH]o1,T/C,"dose: 22.5 mg/kg/injection, vehicle: carboxymethylcellulose (CMC)",87 % of control
same,T/C,[7],110 % of control
same,T/C,"dose: 90.0 mg/kg/injection, vehicle: carboxymethylcellulose (CMC)",83 % of control
same,T/C,"dose: 180.0 mg/kg/injection, vehicle: carboxymethylcellulose (CMC)",70 % of control
O=c1n(CCCl)c(=O)n(CCCl)c(=O)n1CCCl,T/C,"dose: 31.0 mg/kg/injection, vehicle: saline",81 % of control
same,T/C,[8],83 % of control
same,T/C,[9],75 % of control
same,T/C,"dose: 370.0 mg/kg/injection, vehicle: saline",116 % of control
S=c1nc[nH]c2c1ncn2C1CCCO1 (configuration not stated),T/C,[1],84 % of control
same,T/C,[2],85 % of control
same,T/C,[3],62 % of control
same,T/C,[4],30 % of control and 33 % of control
CCCCCCCCCCCCCS,T/C,[2],76 % of control
same,T/C,[3],87 % of control
same,T/C,[4],82 % of control
same,T/C,"dose: 200.0 mg/kg/injection, vehicle: saline",89 % of control
Nc1nc(SCc2ccccc2Cl)c2[nH]cnc2n1,T/C,"dose: 6.0 mg/kg/injection, vehicle: carboxymethylcellulose (CMC)",70 % of control
same,T/C,"dose: 12.0 mg/kg/injection, vehicle: carboxymethylcellulose (CMC)",52 % of control
same,T/C,"dose: 25.0 mg/kg/injection, vehicle: carboxymethylcellulose (CMC)",54 % of control
same,T/C,"dose: 50.0 mg/kg/injection, vehicle: carboxymethylcellulose (CMC)",43 % of control
same,T/C,[3],32 % of control and 39 % of control
same,T/C,"dose: 70.0 mg/kg/injection, vehicle: saline",41 % of control
same,T/C,"dose: 110.0 mg/kg/injection, vehicle: saline",16 % of control and 33 % of control
same,T/C,"dose: 165.0 mg/kg/injection, vehicle: saline",13 % of control
Nc1nc(N)c(N=O)c(Nc2ccc(Br)cc2)n1,T/C,"dose: 22.0 mg/kg/injection, vehicle: carboxymethylcellulose (CMC)",94 % of control
same,T/C,"dose: 44.0 mg/kg/injection, vehicle: carboxymethylcellulose (CMC)",66 % of control
same,T/C,"dose: 88.0 mg/kg/injection, vehicle: carboxymethylcellulose (CMC)",62 % of control
same,T/C,"dose: 175.0 mg/kg/injection, vehicle: carboxymethylcellulose (CMC)",58 % of control and 61 % of control
same,T/C,"dose: 265.0 mg/kg/injection, vehicle: carboxymethylcellulose (CMC)",33 % of control
same,T/C,"dose: 395.0 mg/kg/injection, vehicle: carboxymethylcellulose (CMC)",34 % of control
CS(=O)(=O)OCC(O)C(O)COS(C)(=O)=O (configuration not stated),T/C,[9],121 % of control
same,T/C,[10],111 % of control
same,T/C,[11],81 % of control
same,T/C,"dose: 1000.0 mg/kg/injection, vehicle: saline",101 % of control
CCCn1cnc2c(SCc3ccccc3Cl)nc(N)nc21,T/C,"dose: 100.0 mg/kg/injection, vehicle: carboxymethylcellulose (CMC)",86 % of control
same,T/C,"dose: 200.0 mg/kg/injection, vehicle: carboxymethylcellulose (CMC)",87 % of control
same,T/C,"dose: 400.0 mg/kg/injection, vehicle: carboxymethylcellulose (CMC)",55 % of control
O=[N+]([O-])c1ccccc1CSc1ncnc2nc[nH]c12,T/C,[8],106 % of control
same,T/C,[9],81 % of control
same,T/C,[10],28 % of control
COc1ccc(Nc2ccnc3cc(Cl)ccc23)cc1CN(CCCl)CCCl,T/C,"dose: 0.75 mg/kg/injection, vehicle: saline",73 % of control
same,T/C,"dose: 1.5 mg/kg/injection, vehicle: saline",57 % of control
same,T/C,"dose: 3.0 mg/kg/injection, vehicle: saline",69 % of control
S=C(N=Nc1ccccc1)NNc1ccccc1,T/C,[7],95 % of control
same,T/C,"dose: 65.0 mg/kg/injection, vehicle: carboxymethylcellulose (CMC)",49 % of control
O=S1(=O)CCCO1,T/C,"dose: 40.0 mg/kg/injection, vehicle: carboxymethylcellulose (CMC)",75 % of control
same,T/C,"dose: 80.0 mg/kg/injection, vehicle: carboxymethylcellulose (CMC)",76 % of control
CC(=O)Nc1ccc(NC(=O)c2ccc([As](O)O)cc2)cc1,T/C,"dose: 15.0 mg/kg/injection, vehicle: carboxymethylcellulose (CMC)",89 % of control
same,T/C,"dose: 30.0 mg/kg/injection, vehicle: carboxymethylcellulose (CMC)",111 % of control
same,T/C,"dose: 60.0 mg/kg/injection, vehicle: carboxymethylcellulose (CMC)",85 % of control
same,T/C,"dose: 120.0 mg/kg/injection, vehicle: carboxymethylcellulose (CMC)",61 % of control and 62 % of control
same,T/C,"dose: 240.0 mg/kg/injection, vehicle: carboxymethylcellulose (CMC)",32 % of control
Fc1ccc(CSc2ncnc3c2ncn3C2CCCCO2)cc1 (configuration not stated),T/C,[8],81 % of control
same,T/C,[9],71 % of control
same,T/C,[10],93 % of control
same,T/C,[11],28 % of control
CSc1ncnc2c1ncn2C1CCCO1 (configuration not stated),T/C,"dose: 20.0 mg/kg/injection, vehicle: saline",76 % of control
same,T/C,"dose: 40.0 mg/kg/injection, vehicle: saline",83 % of control
same,T/C,"dose: 160.0 mg/kg/injection, vehicle: saline",44 % of control
Cc1ccc(N=NN(C)C)cc1,T/C,[2],83 % of control
same,T/C,[3],46 % of control
same,T/C,[4],46 % of control
CC(CCc1cccc2ccccc12)(C(=O)O)C(=O)O,T/C,[6],68 % of control
same,T/C,[3],157 % of control
Cn1cnc([N+](=O)[O-])c1Sc1nc(N)nc2c1ncn2C1OC(CO)C(O)C1O (configuration not stated),T/C,"dose: 7.5 mg/kg/injection, vehicle: carboxymethylcellulose (CMC)",96 % of control
O=c1[nH]cnc2n[nH]nc12,T/C,"dose: 75.0 mg/kg/injection, vehicle: saline",80 % of control
same,T/C,"dose: 150.0 mg/kg/injection, vehicle: saline",103 % of control
same,T/C,[12],87 % of control
same,T/C,"dose: 600.0 mg/kg/injection, vehicle: saline",99 % of control
ClCCn1cnc2c(SCc3ccccc3)ncnc21,T/C,[2],75 % of control
same,T/C,[3],64 % of control
same,T/C,[4],56 % of control
same,T/C,[12],69 % of control
same,T/C,[5],65 % of control
Cc1nc(N)nc(N)c1-c1ccc(Cl)c(Cl)c1,T/C,"dose: 0.09 mg/kg/injection, vehicle: carboxymethylcellulose (CMC)",94 % of control
same,T/C,"dose: 0.18 mg/kg/injection, vehicle: carboxymethylcellulose (CMC)",103 % of control
same,T/C,"dose: 0.37 mg/kg/injection, vehicle: carboxymethylcellulose (CMC)",88 % of control
same,T/C,"dose: 1.5 mg/kg/injection, vehicle: carboxymethylcellulose (CMC)",21 % of control
